# Results as given in BindingDB's records for doi:10.1128/AAC.01572-08 (Mcmaster University, 2009).
# Target: Bifunctional protein GlmU (Escherichia coli (strain K12), UniProt P0ACC7)
# Test: Competitive inhibition of Acetyltransferase activity of Escherichia coli BL21(DE3) GlmU in presence of AcCoA
# Sequence of Bifunctional protein GlmU (P0ACC7 whole entry): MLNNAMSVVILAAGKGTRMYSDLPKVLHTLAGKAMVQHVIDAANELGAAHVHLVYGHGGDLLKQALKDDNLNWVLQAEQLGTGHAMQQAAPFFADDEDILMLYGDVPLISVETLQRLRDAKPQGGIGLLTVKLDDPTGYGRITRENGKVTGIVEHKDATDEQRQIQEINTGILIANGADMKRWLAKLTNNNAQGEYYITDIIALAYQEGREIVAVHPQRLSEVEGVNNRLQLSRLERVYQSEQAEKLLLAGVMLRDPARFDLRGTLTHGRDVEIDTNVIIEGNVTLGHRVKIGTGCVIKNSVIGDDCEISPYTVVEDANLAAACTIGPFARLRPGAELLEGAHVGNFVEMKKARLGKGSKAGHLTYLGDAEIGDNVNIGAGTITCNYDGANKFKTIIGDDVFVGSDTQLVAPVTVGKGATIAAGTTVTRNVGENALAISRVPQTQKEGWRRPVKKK
row,Ki,Structure (SMILES)
1,17 nM,Nc1ccc(Nc2ccc(N)cc2S(=O)(=O)O)cc1 [5-amino-2-(4-aminophenylamino)benzenesulfonic acid]
2,23 nM,O=C(CSc1nnc(SCC(=O)NCCSCc2ccco2)s1)NCCSCc1ccco1 [Mac0029665]
3,404 nM,O=S(=O)(Nc1ccc(S(=O)(=O)c2ccc(-c3ccc(S(=O)(=O)c4ccc(NS(=O)(=O)c5ccc(Cl)cc5)c(Cl)c4)cc3)cc2)cc1Cl)c1ccc(Cl)cc1 [Mac0008028]
